Laboratory results from US12365696B2, “Small-molecule focal adhesion kinase (FAK) inhibitors” (DANA-FARBER CANCER INSTITUTE, INC., priority 2019, dated 2025).
pIC50: −log10 of the molar value.

Assays:
MDA-MB-231 cells = experiment: 2D-adherent monolayer cell viability (Cell Titer-Glo), 120 hrs; format: cell-based; conditions: Homo sapiens
Description: For 2D-adherent monolayer experiments, MDA-MB-231 cells were plated in 384-well format and allowed to adhere overnight. Cells were treated with indicated molecules from compound stock plates using a JANUS® Workstation pin tool for 120 hrs. To measure cell viability, Cell Titer-Glo® was added to wells for 15 minutes at room temperature and luminescence was measured on an EnVision™ 2104 Multilabel Plate Reader.
Inventive compound treatment (0.00063-20 μM) led to antiproliferative effects in MDA-MB-231 cells cultured as 2D-adherent monolayers or as ultra-low adherent 3D-spheroid suspensions (Table 5).

[1] = biological target: ABL1(F317I)-phosphorylated (Homo sapiens (Human), UniProt P00519, F317I); experiment: KINOMEscan; format: binding; conditions: 10000 nM, read-out: Percent Control
[2] = biological target: ABL1(Y253F)-phosphorylated (Homo sapiens (Human), UniProt P00519, Y253F); experiment: KINOMEscan; format: binding; conditions: 10000 nM, read-out: Percent Control
ABL1-phosphorylated = ABL1-phosphorylated (Homo sapiens (Human), UniProt P00519); experiment: KINOMEscan; format: binding; conditions: 10000 nM, read-out: Percent Control
BIKE = BIKE (Homo sapiens (Human), UniProt Q9NSY1); experiment: KINOMEscan; format: binding; conditions: 10000 nM, read-out: Percent Control
BRAF(V600E) = BRAF(V600E) (Homo sapiens (Human), UniProt P15056, V600E); experiment: KINOMEscan; format: binding; conditions: 10000 nM, read-out: Percent Control
CAMK2D = CAMK2D (Homo sapiens (Human), UniProt Q13557); experiment: KINOMEscan; format: binding; conditions: 10000 nM, read-out: Percent Control
CDK2 = CDK2 (Homo sapiens (Human), UniProt P24941); experiment: KINOMEscan; format: binding; conditions: CDK2, 10000 nM; read-out: Percent Control
CLK3 = CLK3 (Homo sapiens (Human), UniProt P49761); experiment: KINOMEscan; format: binding; conditions: CLK3, 10000 nM; read-out: Percent Control
CSNK1G2 = CSNK1G2 (Homo sapiens (Human), UniProt P78368); experiment: KINOMEscan; format: binding; conditions: CSNK1G2, 10000 nM; read-out: Percent Control
CSNK1G2, sequence (P78368 whole entry): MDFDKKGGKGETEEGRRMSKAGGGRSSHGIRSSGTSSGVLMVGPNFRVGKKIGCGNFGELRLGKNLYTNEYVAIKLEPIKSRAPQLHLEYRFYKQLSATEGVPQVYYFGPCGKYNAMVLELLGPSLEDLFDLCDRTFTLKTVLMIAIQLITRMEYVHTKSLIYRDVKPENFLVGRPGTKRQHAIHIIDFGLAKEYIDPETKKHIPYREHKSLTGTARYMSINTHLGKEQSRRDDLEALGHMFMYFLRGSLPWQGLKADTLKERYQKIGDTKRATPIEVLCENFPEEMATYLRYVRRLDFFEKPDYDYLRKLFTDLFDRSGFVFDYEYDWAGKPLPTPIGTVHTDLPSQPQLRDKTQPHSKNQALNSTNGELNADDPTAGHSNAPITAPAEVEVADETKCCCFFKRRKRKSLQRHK

CSNK2A1 = CSNK2A1 (Homo sapiens (Human), UniProt P68400); experiment: KINOMEscan; format: binding; conditions: CSNK2A1, 10000 nM; read-out: Percent Control
CSNK2A1, sequence (P68400 whole entry): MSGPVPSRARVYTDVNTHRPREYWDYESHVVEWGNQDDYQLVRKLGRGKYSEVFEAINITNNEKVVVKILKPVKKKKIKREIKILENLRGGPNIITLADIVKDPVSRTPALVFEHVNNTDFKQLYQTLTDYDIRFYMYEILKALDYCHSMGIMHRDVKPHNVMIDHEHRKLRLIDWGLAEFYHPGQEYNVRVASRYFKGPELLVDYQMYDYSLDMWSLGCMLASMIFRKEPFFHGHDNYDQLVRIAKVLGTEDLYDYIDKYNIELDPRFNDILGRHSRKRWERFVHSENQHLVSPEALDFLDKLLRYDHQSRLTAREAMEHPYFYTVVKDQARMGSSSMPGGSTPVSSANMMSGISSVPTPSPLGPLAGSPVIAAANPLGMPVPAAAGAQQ

DCAMKL1 = DCAMKL1 (Homo sapiens (Human), UniProt O15075); experiment: KINOMEscan; format: binding; conditions: DCAMKL1, 10000 nM; read-out: Percent Control
EPHA2 = EPHA2 (Homo sapiens (Human), UniProt P29317); experiment: KINOMEscan; format: binding; conditions: EPHA2, 10000 nM; read-out: Percent Control
ERK2 = ERK2 (Homo sapiens (Human), UniProt P28482); experiment: KINOMEscan; format: binding; conditions: ERK2, 10000 nM; read-out: Percent Control
ERK2, sequence (P28482 whole entry): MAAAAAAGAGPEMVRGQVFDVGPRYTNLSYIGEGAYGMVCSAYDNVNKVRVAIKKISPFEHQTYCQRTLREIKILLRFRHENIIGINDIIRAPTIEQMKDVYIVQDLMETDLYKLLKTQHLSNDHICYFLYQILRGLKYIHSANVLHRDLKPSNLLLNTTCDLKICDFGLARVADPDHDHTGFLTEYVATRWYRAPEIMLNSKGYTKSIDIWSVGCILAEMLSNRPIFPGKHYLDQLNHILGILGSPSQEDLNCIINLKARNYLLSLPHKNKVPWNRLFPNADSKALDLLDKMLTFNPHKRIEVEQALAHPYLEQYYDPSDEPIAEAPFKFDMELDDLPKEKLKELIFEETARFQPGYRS

FLT3(D835V) = FLT3(D835V) (Homo sapiens (Human), UniProt P36888, D835V); experiment: KINOMEscan; format: binding; conditions: 10000 nM, read-out: Percent Control
FLT3(ITD, F691L) = experiment: KINOMEscan; format: binding; conditions: 10000 nM
IRAK4 = IRAK4 (Homo sapiens (Human), UniProt Q9NWZ3); experiment: KINOMEscan; format: binding; conditions: IRAK4, 10000 nM; read-out: Percent Control
IRAK4, sequence (Q9NWZ3 whole entry): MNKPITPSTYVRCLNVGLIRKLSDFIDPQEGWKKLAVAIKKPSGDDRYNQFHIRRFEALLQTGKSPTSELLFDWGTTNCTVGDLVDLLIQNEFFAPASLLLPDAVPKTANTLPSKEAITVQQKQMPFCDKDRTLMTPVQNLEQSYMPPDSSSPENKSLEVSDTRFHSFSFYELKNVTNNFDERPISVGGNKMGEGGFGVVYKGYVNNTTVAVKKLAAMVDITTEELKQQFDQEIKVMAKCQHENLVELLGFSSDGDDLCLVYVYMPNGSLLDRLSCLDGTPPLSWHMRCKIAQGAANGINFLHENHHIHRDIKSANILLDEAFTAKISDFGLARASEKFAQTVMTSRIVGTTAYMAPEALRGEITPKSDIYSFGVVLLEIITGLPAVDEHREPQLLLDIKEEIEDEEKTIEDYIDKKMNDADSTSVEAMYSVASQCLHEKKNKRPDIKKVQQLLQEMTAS

ITK = ITK (Homo sapiens (Human), UniProt Q08881); experiment: KINOMEscan; format: binding; conditions: 10000 nM, read-out: Percent Control
LATS1 = LATS1 (Homo sapiens (Human), UniProt O95835); experiment: KINOMEscan; format: binding; conditions: LATS1, 10000 nM; read-out: Percent Control
LCK = LCK (Homo sapiens (Human), UniProt P06239); experiment: KINOMEscan; format: binding; conditions: 10000 nM, read-out: Percent Control
MAPKAPK2 = MAPKAPK2 (Homo sapiens (Human), UniProt P49137); experiment: KINOMEscan; format: binding; conditions: MAPKAPK2, 10000 nM; read-out: Percent Control
MET = MET (Homo sapiens (Human), UniProt P08581); experiment: KINOMEscan; format: binding; conditions: 10000 nM, read-out: Percent Control
MLK2 = MLK2 (Homo sapiens (Human), UniProt Q02779); experiment: KINOMEscan; format: binding; conditions: MLK2, 10000 nM; read-out: Percent Control
MLK2, sequence (Q02779 whole entry): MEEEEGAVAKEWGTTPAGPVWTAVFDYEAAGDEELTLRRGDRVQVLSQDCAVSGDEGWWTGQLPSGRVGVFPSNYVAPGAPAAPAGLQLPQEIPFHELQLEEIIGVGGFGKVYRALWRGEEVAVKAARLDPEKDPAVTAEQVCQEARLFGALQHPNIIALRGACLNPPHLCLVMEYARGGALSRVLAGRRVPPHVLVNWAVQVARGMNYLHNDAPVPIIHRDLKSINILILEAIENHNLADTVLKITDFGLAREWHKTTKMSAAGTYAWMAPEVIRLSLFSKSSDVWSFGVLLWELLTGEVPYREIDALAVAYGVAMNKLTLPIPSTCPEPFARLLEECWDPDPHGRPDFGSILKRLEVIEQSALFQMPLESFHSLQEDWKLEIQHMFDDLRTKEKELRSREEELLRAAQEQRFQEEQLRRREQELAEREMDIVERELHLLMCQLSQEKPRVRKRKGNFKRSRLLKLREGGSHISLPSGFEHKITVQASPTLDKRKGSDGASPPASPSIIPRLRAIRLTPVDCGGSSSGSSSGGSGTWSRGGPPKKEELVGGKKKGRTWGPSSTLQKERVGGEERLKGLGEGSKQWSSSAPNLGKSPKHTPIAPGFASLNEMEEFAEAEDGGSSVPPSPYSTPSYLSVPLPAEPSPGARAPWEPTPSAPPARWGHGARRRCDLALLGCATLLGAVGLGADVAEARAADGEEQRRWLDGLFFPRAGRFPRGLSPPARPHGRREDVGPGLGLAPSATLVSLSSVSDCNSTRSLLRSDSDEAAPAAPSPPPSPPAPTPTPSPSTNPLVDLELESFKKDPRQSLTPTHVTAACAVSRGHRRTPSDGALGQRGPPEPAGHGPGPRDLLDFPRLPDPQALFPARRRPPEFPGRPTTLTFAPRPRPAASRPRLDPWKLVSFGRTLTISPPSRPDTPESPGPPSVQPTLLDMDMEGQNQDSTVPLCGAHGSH

MYLK = MYLK (Homo sapiens (Human), UniProt Q15746); experiment: KINOMEscan; format: binding; conditions: 10000 nM, read-out: Percent Control
NEK7 = NEK7 (Homo sapiens (Human), UniProt Q8TDX7); experiment: KINOMEscan; format: binding; conditions: NEK7, 10000 nM; read-out: Percent Control
PAK6 = PAK6 (Homo sapiens (Human), UniProt Q9NQU5); experiment: KINOMEscan; format: binding; conditions: PAK6, 10000 nM; read-out: Percent Control
PAK6, sequence (Q9NQU5 whole entry): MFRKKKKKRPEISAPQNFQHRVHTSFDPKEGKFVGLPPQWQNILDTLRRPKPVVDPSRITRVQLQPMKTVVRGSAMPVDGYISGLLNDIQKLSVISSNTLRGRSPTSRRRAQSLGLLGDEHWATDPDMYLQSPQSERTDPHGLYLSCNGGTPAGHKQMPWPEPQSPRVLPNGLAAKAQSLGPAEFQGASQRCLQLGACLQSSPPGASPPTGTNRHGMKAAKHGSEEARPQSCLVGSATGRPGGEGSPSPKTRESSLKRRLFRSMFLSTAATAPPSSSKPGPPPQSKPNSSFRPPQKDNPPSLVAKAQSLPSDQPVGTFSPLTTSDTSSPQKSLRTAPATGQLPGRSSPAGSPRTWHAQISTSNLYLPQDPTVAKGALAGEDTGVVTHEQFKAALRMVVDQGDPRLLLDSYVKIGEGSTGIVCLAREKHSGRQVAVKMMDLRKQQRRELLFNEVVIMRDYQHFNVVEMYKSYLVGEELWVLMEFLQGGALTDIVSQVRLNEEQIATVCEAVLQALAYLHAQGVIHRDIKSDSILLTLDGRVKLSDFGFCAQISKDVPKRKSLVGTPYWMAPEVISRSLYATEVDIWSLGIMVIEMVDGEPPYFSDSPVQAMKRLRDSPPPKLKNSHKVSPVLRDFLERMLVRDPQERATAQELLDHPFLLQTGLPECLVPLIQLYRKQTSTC

PCTK2 = PCTK2 (Homo sapiens (Human), UniProt Q00537); experiment: KINOMEscan; format: binding; conditions: PCTK2, 10000 nM; read-out: Percent Control
PFPK5(P. falciparum) = PFPK5(P. falciparum) (Plasmodium falciparum (isolate 3D7), UniProt P61075); experiment: KINOMEscan; format: binding; conditions: 10000 nM, read-out: Percent Control
PIK3CA(I800L) = PIK3CA(I800L) (Homo sapiens (Human), UniProt P42336, I800L); experiment: KINOMEscan; format: binding; conditions: 10000 nM, read-out: Percent Control
PIK3CA(I800L), sequence (P42336 whole entry I800L): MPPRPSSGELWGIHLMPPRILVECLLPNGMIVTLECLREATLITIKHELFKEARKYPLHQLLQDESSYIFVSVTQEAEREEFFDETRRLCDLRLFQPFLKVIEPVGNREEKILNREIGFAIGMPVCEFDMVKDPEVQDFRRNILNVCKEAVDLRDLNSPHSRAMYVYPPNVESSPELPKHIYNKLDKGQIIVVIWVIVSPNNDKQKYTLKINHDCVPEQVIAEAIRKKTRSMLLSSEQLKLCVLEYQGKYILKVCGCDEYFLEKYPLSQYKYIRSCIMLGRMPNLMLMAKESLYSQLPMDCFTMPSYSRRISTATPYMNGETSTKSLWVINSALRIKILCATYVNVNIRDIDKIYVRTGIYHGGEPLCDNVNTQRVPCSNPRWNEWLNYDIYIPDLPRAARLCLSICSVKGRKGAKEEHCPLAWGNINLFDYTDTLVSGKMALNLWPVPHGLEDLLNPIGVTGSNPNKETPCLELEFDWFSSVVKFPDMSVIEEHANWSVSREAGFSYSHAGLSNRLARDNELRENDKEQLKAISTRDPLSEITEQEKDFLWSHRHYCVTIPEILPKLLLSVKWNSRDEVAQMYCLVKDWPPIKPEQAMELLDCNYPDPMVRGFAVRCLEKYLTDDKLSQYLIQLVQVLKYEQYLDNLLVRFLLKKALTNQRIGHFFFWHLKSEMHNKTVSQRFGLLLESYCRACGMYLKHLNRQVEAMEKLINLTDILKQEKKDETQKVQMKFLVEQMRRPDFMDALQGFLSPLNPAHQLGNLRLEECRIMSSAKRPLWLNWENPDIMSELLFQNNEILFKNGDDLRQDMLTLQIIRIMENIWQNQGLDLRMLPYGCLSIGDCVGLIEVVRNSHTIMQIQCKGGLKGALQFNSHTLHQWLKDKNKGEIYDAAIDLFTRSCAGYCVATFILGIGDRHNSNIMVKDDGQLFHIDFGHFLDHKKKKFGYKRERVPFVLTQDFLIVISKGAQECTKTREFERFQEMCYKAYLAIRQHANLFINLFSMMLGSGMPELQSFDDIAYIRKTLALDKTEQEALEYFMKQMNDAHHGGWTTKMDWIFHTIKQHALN

PIP5K2B = PIP5K2B (Homo sapiens (Human), UniProt P78356); experiment: KINOMEscan; format: binding; conditions: 10000 nM, read-out: Percent Control
PIP5K2B, sequence (P78356 whole entry): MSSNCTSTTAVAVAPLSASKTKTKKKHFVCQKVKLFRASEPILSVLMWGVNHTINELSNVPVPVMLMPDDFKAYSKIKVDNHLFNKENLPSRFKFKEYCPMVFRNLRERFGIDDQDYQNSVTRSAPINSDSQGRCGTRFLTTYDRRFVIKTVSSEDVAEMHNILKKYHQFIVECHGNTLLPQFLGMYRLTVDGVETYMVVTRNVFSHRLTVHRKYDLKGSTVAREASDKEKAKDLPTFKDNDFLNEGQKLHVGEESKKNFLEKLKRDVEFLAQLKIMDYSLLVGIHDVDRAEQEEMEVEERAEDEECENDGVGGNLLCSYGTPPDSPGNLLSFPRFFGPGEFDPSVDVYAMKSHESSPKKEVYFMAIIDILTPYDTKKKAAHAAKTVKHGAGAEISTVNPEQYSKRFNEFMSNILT

[3] = biological target: RSK2(Kin.Dom.2-C-terminal) (Homo sapiens (Human), UniProt P51812); experiment: KINOMEscan; format: binding; conditions: 10000 nM, read-out: Percent Control
RSK2(Kin.Dom.2-C-terminal), sequence (P51812 422-679): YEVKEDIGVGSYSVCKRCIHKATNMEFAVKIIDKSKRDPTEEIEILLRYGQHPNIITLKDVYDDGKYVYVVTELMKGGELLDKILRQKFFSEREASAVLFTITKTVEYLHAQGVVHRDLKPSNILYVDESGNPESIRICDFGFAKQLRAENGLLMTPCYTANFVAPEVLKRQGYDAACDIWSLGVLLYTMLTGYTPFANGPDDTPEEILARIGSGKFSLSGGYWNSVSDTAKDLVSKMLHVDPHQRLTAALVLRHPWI

STK39 = STK39 (Homo sapiens (Human), UniProt Q9UEW8); experiment: KINOMEscan; format: binding; conditions: STK39, 10000 nM; read-out: Percent Control

Compound	pIC50 (MDA-MB-231 cells)	remaining binding at 10 µM [1]	remaining binding at 10 µM [2]	remaining binding at 10 µM (ABL1-phosphorylated)	remaining binding at 10 µM (BIKE)	remaining binding at 10 µM (BRAF(V600E))	remaining binding at 10 µM (CAMK2D)	remaining binding at 10 µM (CDK2)	remaining binding at 10 µM (CLK3)	remaining binding at 10 µM (CSNK1G2)	remaining binding at 10 µM (CSNK2A1)	remaining binding at 10 µM (DCAMKL1)	remaining binding at 10 µM (EPHA2)	remaining binding at 10 µM (ERK2)	remaining binding at 10 µM (FLT3(D835V))	Percent Control (FLT3(ITD, F691L))	remaining binding at 10 µM (IRAK4)	remaining binding at 10 µM (ITK)	remaining binding at 10 µM (LATS1)	remaining binding at 10 µM (LCK)	also measured
COc1cc(N2CCC(N3CCN(C)CC3)CC2)ccc1Nc1ncc2c(n1)N(C)c1sc(C)nc1C(=O)N2 [Compound 3, 6-((2-methoxy-4-(4-(4-methylpiperazin-1-yl)piperidin-1-yl)phenyl)amino)-2,4-dimethyl-4,9-dihydro-10H-pyrimido[5,4-b]thiazolo[5,4-e][1,4]diazepin-10-one]	< 5.00	14%	47%	17%	73%	100%	82%	81%	97%	81%	93%	91%	91%	60%	57%	100%	100%	87%	77%	45%	remaining binding at 10 µM (MAPKAPK2): 100%; remaining binding at 10 µM (MET): 92%; remaining binding at 10 µM (MLK2): 96%; remaining binding at 10 µM (MYLK): 53%; remaining binding at 10 µM (NEK7): 63%; remaining binding at 10 µM (PAK6): 97%; remaining binding at 10 µM (PCTK2): 76%; remaining binding at 10 µM (PFPK5(P. falciparum)): 100%; remaining binding at 10 µM (PIK3CA(I800L)): 100%; remaining binding at 10 µM (PIP5K2B): 76%; remaining binding at 10 µM [3]: 100%; remaining binding at 10 µM (STK39): 100%
COc1cc(N2CCC(N3CCN(C)CC3)CC2)ccc1Nc1ncc2c(n1)N(C)c1sc(C)nc1C(=O)N2C [Compound 5, 6-((2-methoxy-4-(4-(4-methylpiperazin-1-yl)piperidin-1-yl)phenyl)amino)-2,4,9-trimethyl-4,9-dihydro-10H-pyrimido[5,4-b]thiazolo[5,4-e][1,4]diazepin-10-one]	5.12	26%	100%	79%	100%	97%	92%	100%	97%	80%	95%	7.9%	91%	98%	97%	93%	88%	99%	50%	100%	remaining binding at 10 µM (MAPKAPK2): 100%; remaining binding at 10 µM (MET): 97%; remaining binding at 10 µM (MLK2): 76%; remaining binding at 10 µM (MYLK): 36%; remaining binding at 10 µM (NEK7): 100%; remaining binding at 10 µM (PAK6): 100%; remaining binding at 10 µM (PCTK2): 100%; remaining binding at 10 µM (PFPK5(P. falciparum)): 97%; remaining binding at 10 µM (PIK3CA(I800L)): 70%; remaining binding at 10 µM (PIP5K2B): 39%; remaining binding at 10 µM [3]: 99%; remaining binding at 10 µM (STK39): 77%
